Reference: patent publication US20240327790A1, “METHODS AND COMPOSITIONS RELATING TO 3-D CULTURES” (PRESIDENT AND FELLOWS OF HARVARD COLLEGE, priority 2021, published 2024)

Legend:
[1] = system: human skin models, primary human neonatal keratinocytes; assay: Irritation test (MTT viability) on skin models with neonatal keratinocytes; assay type: cell-based; conditions: 3 mg/mL SDS in PBS, 50 μL on top of 14-day neonatal samples, 18 hours at 37° C., MTT 3 hours, absorbance 490 nm
Experimental: (§1) One potential use-case for these skin models is as an irritation model for pharmaceuticals, cosmetics, or occupational health studies. To evaluate the use of these stamped models in irritation tests, a common test method^21 was adapted. Sodium dodecyl sulfate (SDS) was applied to the top of these samples after 14 days of culture and incubated at 37° C. for 18 hours. After, an MTT assay was used to measure the cell viability. […] If the SDS penetrates through the epidermal barrier, the sample will not be viable and give a low signal in the MTT assay. […] Moreover, the standard for this test method is that the normalized viability reaches 50% between 1-3 mg/mL of SDS added to the samples^21. The samples here met this standard, as the 3 mg/mL neonatal samples have absorbance values greater than 50% of the negative control, and the diabetic sample with 2 mg/mL SDS has absorbance value greater than 50% of the negative control.
(§2) Irritation Test. After keratinocytes had grown for 14 days, 50 μL of SDS at a concentration between 1-3 mg/mL in PBS was applied to the top of each skin sample. 1×PBS was applied as a negative control. […] After the substrate was completely dissolved, 50 μL of isopropanol formazan solution was transferred from each well to a 48 well plate, which was measured on a plate reader using the absorbance setting at 490 nm.

[2] = system: human skin model, primary human adult diabetic keratinocytes; assay: Irritation test (MTT viability) on skin model with adult diabetic donor keratinocytes; assay type: cell-based; conditions: 2 mg/mL SDS in PBS, 50 μL on top of 14-day diabetic sample, 18 hours at 37° C., MTT 3 hours, absorbance 490 nm
Experimental: as §1, §2

For CCCCCCCCCCCCOS(=O)(=O)[O-].[Na+] [SDS, Sodium dodecyl sulfate], the “absorbance value (MTT viability) relative to negative control” value [1] was “greater than 50 % of the negative control” and the “absorbance value (MTT viability) relative to negative control” value [2] was “greater than 50 % of the negative control”.
